The text below walks through data of patent US20240067645A1, “HETEROCYCLIC COMPOUND AS DIACYLGLYCEROL KINASE INHIBITOR AND USE THEREOF” (LG CHEM, LTD., priority 2020, published 2024).

The IC50 is the concentration needed to halve the response being measured.

In the test the target is DGKα (Homo sapiens (Human), UniProt P23743). Nature of the test: Measurement of inhibitory effect against DGKα enzyme (ADP-Glo). Type of test: biochemical. As to conditions: DGKα enzyme, ADP-Glo luminescence, OAG/ATP substrate, 20 min room temperature; read-out: IC50. As for the experimental part: Experimental Example: Measurement of Inhibitory Effect Against DGKα Enzyme
DGKα, sequence (P23743 whole entry, species assumed): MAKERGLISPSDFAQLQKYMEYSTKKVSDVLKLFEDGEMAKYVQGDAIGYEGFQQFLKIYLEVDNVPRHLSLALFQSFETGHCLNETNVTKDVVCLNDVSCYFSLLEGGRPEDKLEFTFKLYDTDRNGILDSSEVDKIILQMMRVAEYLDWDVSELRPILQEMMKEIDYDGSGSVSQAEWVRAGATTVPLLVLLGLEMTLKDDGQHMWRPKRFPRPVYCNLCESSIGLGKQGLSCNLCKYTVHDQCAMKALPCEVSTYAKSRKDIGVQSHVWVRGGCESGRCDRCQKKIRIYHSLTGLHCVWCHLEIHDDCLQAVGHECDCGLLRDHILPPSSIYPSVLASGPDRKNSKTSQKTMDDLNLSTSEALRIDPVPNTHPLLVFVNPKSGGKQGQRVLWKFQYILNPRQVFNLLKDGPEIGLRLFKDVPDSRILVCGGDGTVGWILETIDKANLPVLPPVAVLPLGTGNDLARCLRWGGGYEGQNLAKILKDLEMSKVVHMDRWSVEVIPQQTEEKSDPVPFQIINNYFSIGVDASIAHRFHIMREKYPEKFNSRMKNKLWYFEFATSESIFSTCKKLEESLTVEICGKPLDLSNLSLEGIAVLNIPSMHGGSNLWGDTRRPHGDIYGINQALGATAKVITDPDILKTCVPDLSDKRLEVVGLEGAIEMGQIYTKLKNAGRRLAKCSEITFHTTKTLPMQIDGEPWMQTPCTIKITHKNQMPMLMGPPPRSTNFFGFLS
First, 3×OAG (3 mM)/ATP (0.45 mM) substrate solution was prepared from 1× substrate assay buffer (40 mM MOPS (pH 7.2), 20 mM MgCl2, 1 mM DTT, 0.4 mM CaCl2), 3 mM sodium deoxycholate, 100 mM NaCl, 0.1 mg/mL BSA, 0.12% NP-40), and vortexed thoroughly for 3 minutes to induce detergent-lipid micelle formation. Then, 3×DGKα (7.5 nM) enzyme solution was prepared from 2× enzyme assay buffer (80 mM MOPS (pH 7.2), 2 mM DTT, 200 mM NaCl, 0.2 mg/mL BSA) and vortexed for a short time.
After preparing the above two solutions, a half-area opaque 96-well assay plate was prepared, and 10 μL of 3× diluted compound solution (30 μM to 0 μM) was transferred to each well. Next, 10 μL of 3×DGK enzyme solution was transferred to the same plate, mixed by pipetting, and then 10 μL of 3×OAG/ATP substrate solution was added to the assay plate and mixed well. The plate was incubated at room temperature for 20 minutes for the enzyme reaction. Next, 15 μL of ADP-Glo reagent was added to each well and mixed by pipetting, followed by incubating the plate at room temperature for 40 minutes to deplete the remaining ATPs. After this step, 30 μL of kinase detection reagent was added and mixed, and the plate was incubated at room temperature for an additional 20 minutes and luminescence was measured by Envision to calculate the IC50 value of each compound.
The measurement results are represented in Table 1 (+: IC50>5 μM, ++: 5 μM>IC50>300 nM, +++: IC50<300 nM).
For orientation: ADP-Glo first removes unused ATP, then detects ADP through luciferase.

`Cn1c(=O)c(=O)n(C2CCN(Cc3ccc4c(c3)OCCO4)CC2)c2ncc(Cl)cc21` [Example 46, 7-chloro-4-(1-((2,3-dihydrobenzo[b][1,4]dioxin-6-yl)methyl)piperidin-4-yl)-1-methyl-1,4-dihydropyrido[2,3-b]pyrazine-2,3-dione]: the IC50 lay within 300 to 5000 nM.
Regarding `Cn1c(=O)c(=O)n(C2CCN(Cc3ccc(OC(F)(F)F)cc3)CC2)c2nc(-c3ccccc3F)c(Cl)cc21` [Example 41, 7-chloro-6-(2-fluorophenyl)-1-methyl-4-(1-(4-(trifluoromethoxy)benzyl)piperidin-4-yl)-1,4-dihydropyrido[2,3-b]pyrazine-2,3-dione], the IC50 was under 300 nM.
For `Cc1ccc2c(n1)n(C1CCN(Cc3ccc(Cl)cc3)CC1)c(=O)c(=O)n2C` [Example 14, 4-(1-(4-chlorobenzyl)piperidin-4-yl)-1,6-dimethyl-1,4-dihydropyrido[2,3-b]pyrazine-2,3-dione], the IC50 was in the range of 300 to 5000 nM.
As for `Cn1c(=O)c(=O)n(C2CCN(Cc3cccc4ccccc34)CC2)c2nc(C#N)ccc21` [Example 26, 1-methyl-4-(1-(naphthalen-1-ylmethyl)piperidin-4-yl)-2,3-dioxo-1,2,3,4-tetrahydropyrido[2,3-b]pyrazine-6-carbonitrile], the IC50 lay within 300 to 5000 nM.
With `Cn1c(=O)c(=O)n(C2CCN(Cc3cccc4ccccc34)CC2)c2ncc(Cl)cc21` [Example 29, 7-chloro-1-methyl-4-(1-(naphthalen-1-ylmethyl)piperidin-4-yl)-1,4-dihydropyrido[2,3-b]pyrazine-2,3-dione], the IC50 was under 300 nM.
Regarding `Cn1c(=O)c(=O)n(C2CCN(Cc3cccc(Cl)c3)CC2)c2ncccc21` [Example 22, 4-(1-(3-chlorobenzyl)piperidin-4-yl)-1-methyl-1,4-dihydropyrido[2,3-b]pyrazine-2,3-dione], the IC50 was under 300 nM.
For the compound `Cc1ccc2c(n1)n(C1CCN(Cc3ccc(OC(F)(F)F)cc3)CC1)c(=O)c(=O)n2C` [Example 2, 1,6-dimethyl-4-(1-(4-(trifluoromethoxy)benzyl)piperidin-4-yl)-1,4-dihydropyrido[2,3-b]pyrazine-2,3-dione], the IC50 is under 300 nM.
As to `Cn1c(=O)c(=O)n(C2CCN(Cc3ccc(OC(F)(F)F)cc3)CC2)c2ncc(-c3ccccc3F)cc21` [Example 39, 7-(2-fluorophenyl)-1-methyl-4-(1-(4-(trifluoromethoxy)benzyl)piperidin-4-yl)-1,4-dihydropyrido[2,3-b]pyrazine-2,3-dione], the IC50 was under 300 nM.
Turning to `Cn1cc(-c2cnc3c(c2)n(C)c(=O)c(=O)n3C2CCN(Cc3ccc(OC(F)(F)F)cc3)CC2)cn1` [Example 36, 1-methyl-7-(1-methyl-1H-pyrazol-4-yl)-4-(1-(4-(trifluoromethoxy)benzyl)piperidin-4-yl)-1,4-dihydropyrido[2,3-b]pyrazine-2,3-dione], the half-maximal inhibitory concentration (IC50) is under 300 nM.
Take `Cc1ccc2c(n1)n(C1CCN(Cc3ccnc4ccccc34)CC1)c(=O)c(=O)n2C` [Example 9, 1,6-dimethyl-4-(1-(quinolin-4-ylmethyl)piperidin-4-yl)-1,4-dihydropyrido[2,3-b]pyrazine-2,3-dione]: the IC50 is 300 to 5000 nM.
Regarding `Cn1c(=O)c(=O)n(C2CCN(Cc3cccc4nccnc34)CC2)c2ncc(Cl)cc21` [Example 33, 7-chloro-1-methyl-4-(1-(quinoxalin-5-ylmethyl)piperidin-4-yl)-1,4-dihydropyrido[2,3-b]pyrazine-2,3-dione], the IC50 is 300 to 5000 nM.
With `CN(C)CCNC(=O)c1cnc2c(c1)n(C)c(=O)c(=O)n2C1CCN(Cc2ccc(OC(F)(F)F)cc2)CC1` [Example 63, N-(2-(dimethylamino)ethyl)-1-methyl-2,3-dioxo-4-(1-(4-(trifluoromethoxy)benzyl)piperidin-4-yl)-1,2,3,4-tetrahydropyrido[2,3-b]pyrazine-7-carboxamide] the figure was over 5000 nM; with `Cc1ccc2c(n1)n(C1CCN(Cc3cccc(F)n3)CC1)c(=O)c(=O)n2C` [Example 16, 4-(1-((6-fluoropyridin-2-yl)methyl)piperidin-4-yl)-1,6-dimethyl-1,4-dihydropyrido[2,3-b]pyrazine-2,3-dione], over 5000 nM.
Under `CNC(=O)c1cnc2c(c1)n(C)c(=O)c(=O)n2C1CCN(Cc2ccc(OC(F)(F)F)cc2)CC1` [Example 65, N,1-dimethyl-2,3-dioxo-4-(1-(4-(trifluoromethoxy)benzyl)piperidin-4-yl)-1,2,3,4-tetrahydropyrido[2,3-b]pyrazine-7-carboxamide] stands 300 to 5000 nM; under `Cc1ccc2c(n1)n(C1CCN(Cc3cc4ccccc4nc3Cl)CC1)c(=O)c(=O)n2C` [Example 6, 4-(1-((2-chloroquinolin-3-yl)methyl)piperidin-4-yl)-1,6-dimethyl-1,4-dihydropyrido[2,3-b]pyrazine-2,3-dione], 300 to 5000 nM.
Take `CC(=O)c1ccc2c(n1)n(C1CCN(Cc3ccc(OC(F)(F)F)cc3)CC1)c(=O)c(=O)n2C` [Example 53, 6-acetyl-1-methyl-4-(1-(4-(trifluoromethoxy)benzyl)piperidin-4-yl)-1,4-dihydropyrido[2,3-b]pyrazine-2,3-dione]: the half-maximal inhibitory concentration (IC50) lay within 300 to 5000 nM.
`Cc1ccc2c(n1)n(C1CCN(Cc3ccc4c(ccn4C)c3)CC1)c(=O)c(=O)n2C` [Example 8, 1,6-dimethyl-4-(1-((1-methyl-1H-indol-5-yl)methyl)piperidin-4-yl)-1,4-dihydropyrido[2,3-b]pyrazine-2,3-dione]: the IC50 lay in the range of 300 to 5000 nM.
As for `Cc1ccc2c(n1)n(C1CCN(Cc3ccc4ccccc4c3)CC1)c(=O)c(=O)n2C` [Example 19, 1,6-dimethyl-4-(1-(naphthalen-2-ylmethyl)piperidin-4-yl)-1,4-dihydropyrido[2,3-b]pyrazine-2,3-dione], the IC50 lay within 300 to 5000 nM.
In the case of `Cn1c(=O)c(=O)n([C@H]2C[C@H]3CC[C@@H](C2)N3Cc2ccc(OC(F)(F)F)cc2)c2ncc(Cl)cc21` [Example 32, 7-chloro-1-methyl-4-((1R,3s,5S)-8-(4-(trifluoromethoxy)benzyl)-8-azabicyclo[3.2.1]octan-3-yl)-1,4-dihydropyrido[2,3-b]pyrazine-2,3-dione], the IC50 was under 300 nM.
With `Cc1ccc2c(n1)n(C1CCN(Cc3ccc(F)nc3)CC1)c(=O)c(=O)n2C` [Example 17, 4-(1-((6-fluoropyridin-3-yl)methyl)piperidin-4-yl)-1,6-dimethyl-1,4-dihydropyrido[2,3-b]pyrazine-2,3-dione], the IC50 lay in the range of 300 to 5000 nM.
Regarding `Cn1c(=O)c(=O)n(C2CCN(Cc3ccc(OC(F)(F)F)cc3)CC2)c2ncc(C(=O)O)cc21` [Example 62, 1-methyl-2,3-dioxo-4-(1-(4-(trifluoromethoxy)benzyl)piperidin-4-yl)-1,2,3,4-tetrahydropyrido[2,3-b]pyrazine-7-carboxylic acid], the IC50 is 300 to 5000 nM.
As to `Cc1ccc2c(n1)n(C1CCN(Cc3ccccc3-c3ccccc3)CC1)c(=O)c(=O)n2C` [Example 10, 4-(1-([1,1′-biphenyl]-2-ylmethyl)piperidin-4-yl)-1,6-dimethyl-1,4-dihydropyrido[2,3-b]pyrazine-2,3-dione], the IC50 was 300 to 5000 nM.
With `Cc1ccc2c(n1)n(C1CCN(Cc3ccccc3)CC1)c(=O)c(=O)n2C` [Example 23, 4-(1-benzylpiperidin-4-yl)-1,6-dimethyl-1,4-dihydropyrido[2,3-b]pyrazine-2,3-dione] the figure was 300 to 5000 nM.
